Assays:
[1] = (§1) Evaluation of pharmacokinetic parameters for Ticagrelor following oral administration of Ticagrelor tablets (BRILINTA); format: ADME, organism-based; conditions: human, in vivo, dosed compound id 12, dosed compound name TICAGRELOR, tissue Plasma
Homo sapiens = test: as §1; format: ADME, organism-based; conditions: in vivo, po, dosed compound id 12, dosed compound name TICAGRELOR, tissue Plasma

Tmax [1]: 1.5 h
bioavailability [1]: 36%
half-life [1]: 420 min
Protein bound (Homo sapiens): 99%
Vd (Homo sapiens): 88 L
Structure (SMILES): CCCSc1nc(N[C@@H]2C[C@H]2c2ccc(F)c(F)c2)c2nnn([C@@H]3C[C@H](OCCO)[C@@H](O)[C@H]3O)c2n1 [TICAGRELOR]

Reference: ChEMBL document CHEMBL3832540, “DailyMed|setid=3ce9ee32-b18b-4ef3-b127-ce479d520e1a | BRILINTA- ticagrelor tablet|Bryant Ranch Prepack”
